Reference: ChEMBL document CHEMBL1201862, “PubChem BioAssay data set” (2004)
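These data come from cells grown in 96-well plates and exposed to compound for 48 hours at five concentrations. GI50 = concentration required for 50% inhibition of growth.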 Active and inactive are the calls of the source. Rule as the data show it: active = GI50 up to about 1.1 µM and inactive = higher.

Experiments:
Test in all cases: inhibition of tumour cell growth, NCI panel, 48 h
A498 = tested on: A498
A549 = tested on: A549
BT-549 = tested on: BT-549
HOP-62 = tested on: HOP-62
Hs-578T = tested on: Hs-578T
M14 = tested on: M14
MDA-MB-435 = tested on: MDA-MB-435
MDA-N = tested on: MDA-N
Malme-3M = tested on: Malme-3M
NCI-H522 = tested on: NCI-H522
NCI/ADR-RES = tested on: NCI/ADR-RES
PC-3 = tested on: PC-3
SK-MEL-2 = tested on: SK-MEL-2
SK-OV-3 = tested on: SK-OV-3
SNB-75 = tested on: SNB-75
T47D = tested on: T47D
TK-10 = tested on: TK-10
U-251 = tested on: U-251
UACC-257 = tested on: UACC-257
UACC-62 = tested on: UACC-62

Measured: GI50

Cn1c(=O)c2c([nH]/c(=N/N=C/c3ccccc3C(=O)O)n2C)n(C)c1=O
inactive: A498 > 100 µM | A549 > 100 µM | BT-549 > 100 µM | HOP-62 > 100 µM | Hs-578T > 100 µM | M14 > 100 µM | MDA-MB-435 > 100 µM | MDA-N > 100 µM | Malme-3M > 100 µM | NCI-H522 > 100 µM | NCI/ADR-RES > 100 µM | PC-3 > 100 µM | SK-MEL-2 > 100 µM | SK-OV-3 > 100 µM | SNB-75 > 100 µM | T47D > 100 µM | TK-10 > 100 µM | U-251 > 100 µM | UACC-257 > 100 µM | UACC-62 > 100 µM
